According to patent US20240228572A1 (i2o Therapeutics, Inc., priority 2020, published 2024):
*1 amine or outer side, *2 acyl side, *3 side chain or, on linkers, in order; H or OH if unused. Where a SMILES comes first, the peptide text is derived from it. Side-chain parts run from the residue outwards. [ ]: non-standard residue; d: D form. The star is where a group is joined. C20 diacid = O=C(O)CCCCCCCCCCCCCCCCCCC(=O)*; γGlu = O=C(O)[C@H](CCC(=O)[*:2])N[*:1]; AEEA = NCCOCCOCC(=O)O; Aib = CC(C)(N)C(=O)O

Legend:
[1] = Metabolic stability in human kidney brush border membranes (kBBM); type: in vitro ADME; settings: 1 mcM peptide, 50 mcg protein/mL, 37° C., pH 7.4, read-out: kBBM t½
Procedure: (§1) Brush border membranes from rat and human kidney tissue were prepared via centrifugation and stored at −70° C. Thawed stocks of rat or human kBBM were diluted to the appropriate concentration in 25 mM HEPES buffer (pH 7.4) containing 1% casein and aliquoted into a 96-well plate. The kBBM solutions were pre-warmed for 10 minutes at 37° C. Reactions were initiated by the addition of test peptide (1 mcM final concentration) also dissolved in 25 mM HEPES buffer (pH 7.4) containing 1% casein. The final concentration of kBBM in each incubation was 50 mcg protein/mL. Reactions were maintained at 37° C. in a shaking water bath. At 0, 0.25, 0.5, 1.0, 2.0, and 4.0 h post-initiation, 30 mcL of the reaction mixture was removed and placed into a 96-well plate containing 120 mcL of ice-cold methanol containing 2.5% formic acid. Quenched samples were centrifuged at 2178×g for 10 min and then a portion of the supernatants were transferred to a clean 96-well plate and diluted 1:1 with water.

[2] = Metabolic stability in monkey kidney brush border membranes (kBBM); type: in vitro ADME; settings: pH 7.4, read-out: kBBM t½
Procedure: as §1

Question: Which results are given for `CC(C)C[C@H](NC(=O)[C@H](Cc1ccc(O)cc1)NC(=O)[C@H](CCCCN)NC(=O)[C@H](CO)NC(=O)[C@H](Cc1ccc(O)cc1)NC(=O)[C@H](CC(=O)O)NC(=O)[C@H](CO)NC(=O)[C@@H](NC(=O)[C@H](Cc1ccccc1)NC(=O)[C@@H](NC(=O)CNC(=O)[C@H](Cc1c[nH]cn1)NC(=O)[C@H](CO)NC(=O)[C@@H](N)Cc1ccc(O)cc1)[C@@H](C)O)[C@@H](C)O)C(=O)N[C@@H](CC(=O)O)C(=O)NC(C)(C)C(=O)N[C@@H](CCCCN)C(=O)N[C@@H](Cc1ccc(O)cc1)C(=O)N[C@@H](C)C(=O)N[C@@H](CCC(N)=O)C(=O)N[C@@H](CCCCNC(=O)CC[C@H](NC(=O)CC[C@H](NC(=O)COCCOCCNC(=O)CCCCCCCCCCCCCCCCCCC(=O)O)C(=O)O)C(=O)O)C(=O)N[C@@H](Cc1ccccc1)C(=O)N[C@H](C(=O)NC(C)(C)C(=O)N[C@@H](Cc1c[nH]c2ccccc12)C(=O)N[C@@H](CC(C)C)C(=O)N[C@@H](CCC(=O)O)C(=O)N[C@@H](CC(=O)O)C(=O)N[C@@H](CCC(=O)O)C(=O)N1CCC[C@H]1C(=O)N[C@@H](CO)C(=O)N[C@@H](CO)C(=O)NCC(=O)N[C@@H](C)C(=O)N1CCC[C@H]1C(=O)N1CCC[C@H]1C(=O)N1CCC[C@H]1C(=O)N[C@@H](CO)C(=O)O)C(C)C` [Compound A6] (H-YSHGTFTSDYSKYLD[Aib]KYAQK([γGlu-γGlu-AEEA-C20 diacid])FV[Aib]WLEDEPSSGAPPPS-OH; N-terminus assumed)?
Answer: half-life at 1 mcM [1]: > 72 h; half-life at 1 mcM [2]: > 12 h
